What follows are compounds tested against T1, STAT6 (Homo sapiens, UniProt P42226) (assay: STAT6 Reporter Luciferase Assay (IL-13 stimulated HaCaT keratinocyte NanoLuc reporter cells)). Details: IL-13 stimulated HaCaT STAT6 NanoLuc reporter cells; read-out: Reporter EC50.
T1 construct: stably transfected HaCaT keratinocyte cell line, which expresses NanoLuc luciferase reporter gene under the transcriptional control of the STAT6 responsive promoter; endogenous in cells; host or cells: HaCaT keratinocyte reporter cell line (stably transfected with a NanoLuc reporter)
T1 sequence (P42226 1-847): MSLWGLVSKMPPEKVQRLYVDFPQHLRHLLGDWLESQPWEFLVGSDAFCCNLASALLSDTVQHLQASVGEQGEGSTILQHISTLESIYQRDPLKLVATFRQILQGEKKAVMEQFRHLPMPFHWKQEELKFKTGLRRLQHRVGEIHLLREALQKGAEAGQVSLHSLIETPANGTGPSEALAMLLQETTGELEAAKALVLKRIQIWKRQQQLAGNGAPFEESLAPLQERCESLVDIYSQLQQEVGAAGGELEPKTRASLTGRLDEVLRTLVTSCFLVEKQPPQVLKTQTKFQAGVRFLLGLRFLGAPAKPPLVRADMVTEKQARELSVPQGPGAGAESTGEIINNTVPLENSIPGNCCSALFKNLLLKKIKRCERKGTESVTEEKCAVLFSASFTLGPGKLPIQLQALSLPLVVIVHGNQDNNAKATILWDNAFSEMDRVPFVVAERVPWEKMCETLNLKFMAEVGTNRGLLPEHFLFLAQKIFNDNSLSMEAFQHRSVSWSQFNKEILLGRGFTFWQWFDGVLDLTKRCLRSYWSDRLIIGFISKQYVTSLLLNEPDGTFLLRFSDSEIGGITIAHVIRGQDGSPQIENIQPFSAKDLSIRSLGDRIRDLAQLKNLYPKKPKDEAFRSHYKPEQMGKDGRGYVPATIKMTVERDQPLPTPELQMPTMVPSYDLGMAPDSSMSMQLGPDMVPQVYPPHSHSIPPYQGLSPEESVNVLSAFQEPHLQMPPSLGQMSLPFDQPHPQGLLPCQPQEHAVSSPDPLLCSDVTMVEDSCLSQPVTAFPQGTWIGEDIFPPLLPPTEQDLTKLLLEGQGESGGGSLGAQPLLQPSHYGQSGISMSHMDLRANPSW
Format: cell-based
Outline: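 Compounds were tested as 11-point, 4-fold series in duplicate, applied for 2 h at 37 °C in low-serum (2% FBS) DMEM. The cells were a stable HaCaT line with NanoLuc under a STAT6-responsive IL-13Ra2 promoter. After 4 h with 0.12 nM IL-13, Nano-Glo luminescence was measured.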

Row | Compound | EC50
1 | CC(C)n1nc(C(=O)NCc2ccc(NC(=O)N(C)C)cc2)c2c1CCN(c1ccc(C(=O)N3CCC(O)C3)cn1)C2 (racemic) [Example 198, rac-(R)-N-(4-(3,3-dimethylureido)benzyl)-5-(5-(3-hydroxypyrrolidine-1-carbonyl)pyridin-2-yl)-1-isopropyl-4,5,6,7-tetrahydro-1H-pyrazolo[4,3-c]pyridine-3-carboxamide] | 210 nM
2 | CC(C)n1nc(C(=O)NCc2ccc(NC(=O)N3CC4(CN(C)C4)C3)c(F)c2)c2c1[C@@H](C)CN(c1ccc(C(=O)N(C)C)cc1)C2 [Example 641, (S)-5-(4-(dimethylcarbamoyl)phenyl)-N-(3-fluoro-4-(6-methyl-2,6-diazaspiro[3.3]heptane-2-carboxamido)benzyl)-1-isopropyl-7-methyl-4,5,6,7-tetrahydro-1H-pyrazolo[4,3-c]pyridine-3-carboxamide] | 5 nM
3 | CC(C)n1nc(C(=O)NCc2ccc(NC(=O)N3CCN(C)CC3)cc2)c2c1[C@@H](C)CN(c1ccc(-c3nccn3C(F)F)cn1)C2 [Example 654, (S)-5-(5-(1-(difluoromethyl)-1H-imidazol-2-yl)pyridin-2-yl)-1-isopropyl-7-methyl-N-(4-(4-methylpiperazine-1-carboxamido)benzyl)-4,5,6,7-tetrahydro-1H-pyrazolo[4,3-c]pyridine-3-carboxamide] | 2 nM
4 | CC(C)n1nc(C(=O)NCc2ccc(NC(=O)N(C)C)cc2)c2c1CCN(c1ccc(C(=O)N3CCc4ccc(C#N)cc4C3)cn1)C2 [Example 422, 5-(5-(7-cyano-1,2,3,4-tetrahydroisoquinoline-2-carbonyl)pyridin-2-yl)-N-(4-(3,3-dimethylureido)benzyl)-1-isopropyl-4,5,6,7-tetrahydro-1H-pyrazolo[4,3-c]pyridine-3-carboxamide] | 19 nM
5 | COC1(C)CN(C(=O)c2ccc(N3CCc4c(c(C(=O)NCc5ccc(NC(=O)N(C)C)cc5)nn4C(C)C)C3)nc2)C1 [Example 226, N-(4-(3,3-dimethylureido)benzyl)-1-isopropyl-5-(5-(3-methoxy-3-methylazetidine-1-carbonyl)pyridin-2-yl)-4,5,6,7-tetrahydro-1H-pyrazolo[4,3-c]pyridine-3-carboxamide] | 1930 nM
6 | CC(C)n1nc(C(=O)NCc2ccc(NC(=O)N3CCN(C)CC3)cc2)c2c1[C@@H](C)CN(c1ccc(-n3ccnn3)cc1)C2 [Example 674, (S)-5-(4-(1H-1,2,3-triazol-1-yl)phenyl)-1-isopropyl-7-methyl-N-(4-(4-methylpiperazine-1-carboxamido)benzyl)-4,5,6,7-tetrahydro-1H-pyrazolo[4,3-c]pyridine-3-carboxamide] | 0.2 nM
7 | CC(C)n1nc(C(=O)NCc2ccc(NC(=O)N3CC[C@@H](N(C)C)C3)cc2)c2c1[C@@H](C)CN(c1ccc(C(=O)N(C)C)cc1)C2 [Example 750, (S)-N-(4-((R)-3-(dimethylamino)pyrrolidine-1-carboxamido)benzyl)-5-(4-(dimethylcarbamoyl)phenyl)-1-isopropyl-7-methyl-4,5,6,7-tetrahydro-1H-pyrazolo[4,3-c]pyridine-3-carboxamide] | 1 nM
8 | CC(C)n1nc(C(=O)NCc2ccc(NC(=O)N(C)C)cc2)c2c1CCN(c1ccc(C(=O)N3CCn4cnnc4C3)cn1)C2 [Example 380, N-(4-(3,3-dimethylureido)benzyl)-1-isopropyl-5-(5-(5,6,7,8-tetrahydro-[1,2,4]triazolo[4,3-a]pyrazine-7-carbonyl)pyridin-2-yl)-4,5,6,7-tetrahydro-1H-pyrazolo[4,3-c]pyridine-3-carboxamide] | 538 nM
9 | CC(C)n1nc(C(=O)NCc2ccc(NC(=O)N3CCN(C)CC3)cc2)c2c1C(C(F)(F)F)CN(c1ccc(C(=O)N(C)C)cc1)C2 (single isomer, unassigned) [Example 702, rel-(R or S)-5-(4-(dimethylcarbamoyl)phenyl)-1-isopropyl-N-(4-(4-methylpiperazine-1-carboxamido)benzyl)-7-(trifluoromethyl)-4,5,6,7-tetrahydro-1H-pyrazolo[4,3-c]pyridine-3-carboxamide] | 10 nM
10 | CC(C)n1nc(C(=O)NCc2ccc(NC(=O)N(C)C)cc2)c2c1CCN(c1ccc(C(=O)N3CCn4nncc4C3)cn1)C2 [Example 427, N-(4-(3,3-dimethylureido)benzyl)-1-isopropyl-5-(5-(4,5,6,7-tetrahydro-[1,2,3]triazolo[1,5-a]pyrazine-5-carbonyl)pyridin-2-yl)-4,5,6,7-tetrahydro-1H-pyrazolo[4,3-c]pyridine-3-carboxamide] | 282 nM
11 | Cc1nn(C)c2c1CN(C(=O)c1ccc(N3CCc4c(c(C(=O)NCc5ccc(NC(=O)N(C)C)cc5)nn4C(C)C)C3)nc1)C2 [Example 401, 5-(5-(1,3-dimethyl-1,4,5,6-tetrahydropyrrolo[3,4-c]pyrazole-5-carbonyl)pyridin-2-yl)-N-(4-(3,3-dimethylureido)benzyl)-1-isopropyl-4,5,6,7-tetrahydro-1H-pyrazolo[4,3-c]pyridine-3-carboxamide] | 32 nM
12 | CC(C)n1nc(C(=O)NCc2ccc(NC(=O)N(C)C)cc2)c2c1CCN(c1ccc(C(=O)N3Cc4cncnc4C3)cn1)C2 [Example 408, 5-(5-(6,7-dihydro-5H-pyrrolo[3,4-d]pyrimidine-6-carbonyl)pyridin-2-yl)-N-(4-(3,3-dimethylureido)benzyl)-1-isopropyl-4,5,6,7-tetrahydro-1H-pyrazolo[4,3-c]pyridine-3-carboxamide] | 39 nM
13 | CC(C)n1nc(C(=O)NCc2ccc(NC(=O)N(C)CCC(=O)O)c(F)c2)c2c1[C@@H](C)CN(c1ccc(C(=O)N(C)C)cc1)C2 [Example 733, (S)-3-(3-(4-((5-(4-(dimethylcarbamoyl)phenyl)-1-isopropyl-7-methyl-4,5,6,7-tetrahydro-1H-pyrazolo[4,3-c]pyridine-3-carboxamido)methyl)-2-fluorophenyl)-1-methylureido)propanoic acid] | 342 nM
14 | CC(C)n1nc(C(=O)NCc2ccc(NC(=O)N(C)C)cc2)c2c1CCN(c1ccc(C(=O)N3CC(C)(O)C3)cn1)C2 [Example 244, N-(4-(3,3-dimethylureido)benzyl)-5-(5-(3-hydroxy-3-methylazetidine-1-carbonyl)pyridin-2-yl)-1-isopropyl-4,5,6,7-tetrahydro-1H-pyrazolo[4,3-c]pyridine-3-carboxamide] | 196 nM
15 | CC(C)n1nc(C(=O)NCc2ccc(NC(=O)N(C)C)cc2)c2c1CCN(c1ccc(C(=O)N3Cc4ccncc4C3)cn1)C2 [Example 378, 5-(5-(2,3-dihydro-1H-pyrrolo[3,4-c]pyridine-2-carbonyl)pyridin-2-yl)-N-(4-(3,3-dimethylureido)benzyl)-1-isopropyl-4,5,6,7-tetrahydro-1H-pyrazolo[4,3-c]pyridine-3-carboxamide] | 15 nM
16 | CC(C)n1nc(C(=O)NCc2ccc(NC(=O)NC3(C)CNC3)cc2)c2c1[C@@H](C)CN(c1ccc(C(=O)N(C)C)cc1)C2 [Example 739, (S)-5-(4-(dimethylcarbamoyl)phenyl)-1-isopropyl-7-methyl-N-(4-(3-(3-methylazetidin-3-yl)ureido)benzyl)-4,5,6,7-tetrahydro-1H-pyrazolo[4,3-c]pyridine-3-carboxamide] | 2 nM
17 | CC(C)n1nc(C(=O)NCc2ccc(NC(=O)N(C)C)cc2)c2c1CCN(c1ccc(C(=O)N3CCC4(CCC(=O)N4C)CC3)cn1)C2 [Example 564, N-(4-(3,3-dimethylureido)benzyl)-1-isopropyl-5-(5-(1-methyl-2-oxo-1,8-diazaspiro[4.5]decane-8-carbonyl)pyridin-2-yl)-4,5,6,7-tetrahydro-1H-pyrazolo[4,3-c]pyridine-3-carboxamide] | 223 nM
18 | CC(C)n1nc(C(=O)NCc2ccc(NC(=O)N(C)C)cc2)c2c1CCN(c1ccc(C(=O)N3CCc4cccnc4C3)cn1)C2 [Example 417, N-(4-(3,3-dimethylureido)benzyl)-1-isopropyl-5-(5-(5,6,7,8-tetrahydro-1,7-naphthyridine-7-carbonyl)pyridin-2-yl)-4,5,6,7-tetrahydro-1H-pyrazolo[4,3-c]pyridine-3-carboxamide] | 17 nM
19 | CC(C)n1nc(C(=O)NCc2ccc(NC(=O)N3CCC4(CC3)CCN4C)cc2)c2c1[C@@H](C)CN(c1ccc(C(=O)N(C)C)cc1)C2 [Example 740, (S)-5-(4-(dimethylcarbamoyl)phenyl)-1-isopropyl-7-methyl-N-(4-(1-methyl-1,7-diazaspiro[3.5]nonane-7-carboxamido)benzyl)-4,5,6,7-tetrahydro-1H-pyrazolo[4,3-c]pyridine-3-carboxamide] | 2 nM
